What was measured:
NCI-H460 [1] = assay: Cytotoxicity against human NCI-H460 cells assessed as growth inhibition at 100 ug/ml after 24 hrs by MTT assay; assay type: functional; conditions: NCI-H460, 24 h, read-out: GI
[2] = Cytotoxicity against human HO8910 cells assessed as growth inhibition at 100 ug/ml after 24 hrs by MTT assay; assay type: functional; conditions: HO-8910, 24 h, read-out: GI
HT-29 = assay: Induction of apoptosis in human HT-29 cells; assay type: functional, cell-based
KB [3] = assay: Cytotoxicity against human KB cells assessed as growth inhibition at 0.1 ug/ml after 24 hrs by MTT assay; assay type: functional; conditions: read-out: GI
Bel-7402 [4] = assay: Cytotoxicity against human Bel7402 cells assessed as growth inhibition at 0.1 ug/ml after 24 hrs by MTT assay; assay type: functional; conditions: Bel-7402, 24 h, read-out: GI
Bel-7402 [5] = assay: Cytotoxicity against human Bel7402 cells assessed as growth inhibition at 100 ug/ml after 24 hrs by MTT assay; assay type: functional; conditions: Bel-7402, 24 h, read-out: GI
NCI-H460 [6] = assay: Cytotoxicity against human NCI-H460 cells assessed as growth inhibition at 0.1 ug/ml after 24 hrs by MTT assay; assay type: functional; conditions: NCI-H460, 24 h, read-out: GI
[7] = Cytotoxicity against human HO8910 cells assessed as growth inhibition at 1 ug/ml after 24 hrs by MTT assay; assay type: functional; conditions: HO-8910, 24 h, read-out: GI
NCI-H460 [8] = assay: Cytotoxicity against human NCI-H460 cells assessed as growth inhibition at 10 ug/ml after 24 hrs by MTT assay; assay type: functional; conditions: NCI-H460, 24 h, read-out: GI
Bel-7402 [9] = assay: Cytotoxicity against human Bel7402 cells assessed as growth inhibition at 10 ug/ml after 24 hrs by MTT assay; assay type: functional; conditions: Bel-7402, 24 h, read-out: GI
KB [10] = assay: Cytotoxicity against human KB cells assessed as growth inhibition at 1 ug/ml after 24 hrs by MTT assay; assay type: functional; conditions: read-out: GI
KB [11] = assay: Cytotoxicity against human KB cells assessed as growth inhibition at 100 ug/ml after 24 hrs by MTT assay; assay type: functional; conditions: read-out: GI
KB [12] = assay: Cytotoxicity against human KB cells assessed as growth inhibition at 10 ug/ml after 24 hrs by MTT assay; assay type: functional; conditions: read-out: GI
NCI-H460 [13] = assay: Cytotoxicity against human NCI-H460 cells assessed as growth inhibition at 1 ug/ml after 24 hrs by MTT assay; assay type: functional; conditions: NCI-H460, 24 h, read-out: GI
Bel-7402 [14] = assay: Cytotoxicity against human Bel7402 cells assessed as growth inhibition at 1 ug/ml after 24 hrs by MTT assay; assay type: functional; conditions: Bel-7402, 24 h, read-out: GI
[15] = Cytotoxicity against human HO8910 cells assessed as growth inhibition at 0.1 ug/ml after 24 hrs by MTT assay; assay type: functional; conditions: HO-8910, 24 h, read-out: GI
[16] = Cytotoxicity against human HO8910 cells assessed as growth inhibition at 10 ug/ml after 24 hrs by MTT assay; assay type: functional; conditions: HO-8910, 24 h, read-out: GI
PC-3 [17] = assay: Cytotoxicity against human PC3 cells assessed as growth inhibition at 100 ug/ml after 24 hrs by MTT assay; assay type: functional; conditions: PC-3, 24 h, read-out: GI
PC-3 [18] = assay: Cytotoxicity against human PC3 cells assessed as growth inhibition at 0.1 ug/ml after 24 hrs by MTT assay; assay type: functional; conditions: PC-3, 24 h, read-out: GI
PC-3 [19] = assay: Cytotoxicity against human PC3 cells assessed as growth inhibition at 1 ug/ml after 24 hrs by MTT assay; assay type: functional; conditions: PC-3, 24 h, read-out: GI
PC-3 [20] = assay: Cytotoxicity against human PC3 cells assessed as growth inhibition at 10 ug/ml after 24 hrs by MTT assay; assay type: functional; conditions: PC-3, 24 h, read-out: GI
FaDu = assay: Growth inhibition of human FADU cells at 10 uM; assay type: functional
SCC-9 = assay: Growth inhibition of human SCC9 cells at 10 uM; assay type: functional
[21] = Toxicity in rat; assay type: organism-based; conditions: in vivo
SMMC-7721 = assay: Induction of apoptosis in human SMMC7721 cells at 5 mM after 96 hrs; assay type: functional
SCC-25 = assay: Growth inhibition of human SCC25 cells at 10 uM; assay type: functional
[22] = Growth inhibition of human Detroit 562 cells at 10 uM; assay type: functional
CCRF S-180 [23] = assay: Antitumor activity against mouse S180 cells xenografted in ICR mouse assessed as reduction of tumor weight at 100 mg/kg, ig administered 2 days after tumor inoculation qd for 7 days; assay type: functional; conditions: route intragastric
CCRF S-180 [24] = assay: Antitumor activity against mouse S180 cells xenografted in ICR mouse assessed as reduction of tumor weight at 200 mg/kg, ig administered 2 days after tumor inoculation qd for 7 days; assay type: functional; conditions: route intragastric
DU-145 = assay: Cytotoxicity against human DU145 cells; assay type: functional, cell-based
CCRF S-180 [25] = assay: animal or person; conditions: Mus musculus, CCRF S-180, po, read-out: INH
Description: Antitumor activity against mouse S180 cells xenografted in ICR mouse assessed as inhibition of tumor weight at 100 mg/kg, ig administered 2 days after tumor inoculation qd for 7 days relative to control

Mus musculus [26] = assay: Acute toxicity in ICR mouse assessed as change in body weight at 100 mg/kg, ip qd for 4 days; assay type: organism-based; parameters: dose 100 mg/kg, route intraperitoneal; conditions: in vivo, 96 h
Mus musculus [27] = assay: Acute toxicity in ICR mouse assessed as mortality at 1000 mg/kg, ig; assay type: organism-based; parameters: dose 1000 mg/kg, route intragastric; conditions: in vivo, po
CCRF S-180 [28] = assay: Cytotoxicity against mouse S180 cells assessed as growth inhibition at 0.1 ug/ml after 24 hrs by MTT assay; assay type: functional; conditions: CCRF S-180, 24 h
[29] = Acute toxicity in ICR mouse; assay type: organism-based; conditions: in vivo
Mus musculus [30] = assay: Acute toxicity in ICR mouse assessed as mortality at 200 mg/kg, ip qd for 9 days measured on day 11; assay type: organism-based; parameters: dose 200 mg/kg, route intraperitoneal; conditions: in vivo, 216 h
CCRF S-180 [31] = assay: Cytotoxicity against mouse S180 cells assessed as growth inhibition at 10 ug/ml after 24 hrs by MTT assay; assay type: functional; conditions: CCRF S-180, 24 h
Mus musculus [32] = assay: Acute toxicity in ICR mouse assessed as gross pathological changes at 1000 mg/kg, ig; assay type: organism-based; parameters: dose 1000 mg/kg, route intragastric; conditions: in vivo, po
CCRF S-180 [33] = assay: Cytotoxicity against mouse S180 cells assessed as growth inhibition at 1 ug/ml after 24 hrs by MTT assay; assay type: functional; conditions: CCRF S-180, 24 h
CCRF S-180 [34] = assay: Cytotoxicity against mouse S180 cells assessed as growth inhibition at 100 ug/ml after 24 hrs by MTT assay; assay type: functional; conditions: CCRF S-180, 24 h
CCRF S-180 [35] = assay: Antitumor activity against mouse S180 cells xenografted in ICR mouse assessed as inhibition of tumor weight at 200 mg/kg, ig administered 2 days after tumor inoculation qd for 7 days relative to control; assay type: functional; conditions: CCRF S-180, po, route intragastric
Mus musculus [36] = assay: Acute toxicity in ICR mouse assessed as mortality at 100 mg/kg, ip qd for 4 days; assay type: organism-based; parameters: dose 100 mg/kg, route intraperitoneal; conditions: in vivo, 96 h

SMILES	inhibition of growth at 100 µg/mL (NCI-H460 [1]) [%]	inhibition of growth at 100 µg/mL [2] [%]	inhibition of growth at 0.1 µg/mL (KB [3]) [%]	inhibition of growth at 100 µg/mL (Bel-7402 [5]) [%]	inhibition of growth at 0.1 µg/mL (NCI-H460 [6]) [%]	inhibition of growth at 1 µg/mL [7] [%]	inhibition of growth at 10 µg/mL (NCI-H460 [8]) [%]	inhibition of growth at 10 µg/mL (Bel-7402 [9]) [%]	inhibition of growth at 1 µg/mL (KB [10]) [%]	inhibition of growth at 100 µg/mL (KB [11]) [%]	inhibition of growth at 10 µg/mL (KB [12]) [%]	inhibition of growth at 1 µg/mL (NCI-H460 [13]) [%]	inhibition of growth at 1 µg/mL (Bel-7402 [14]) [%]	inhibition of growth at 0.1 µg/mL [15] [%]	inhibition of growth at 10 µg/mL [16] [%]	inhibition of growth at 100 µg/mL (PC-3 [17]) [%]	inhibition of growth at 0.1 µg/mL (PC-3 [18]) [%]	inhibition of growth at 1 µg/mL (PC-3 [19]) [%]	inhibition of growth at 10 µg/mL (PC-3 [20]) [%]	IC50 (DU-145) [µM]	also measured
O=C(O)CCCC[C@@H](S)CCS [DIHYDROLIPOIC ACID]	7.84	1.17	12	0.59	9.25	3.93	5.02	5.59	8.79	16.3	3.38	12.2	6.98								EC50 (HT-29): 250 µM; inhibition of growth at 0.1 µg/mL (Bel-7402 [4]): 10.4%
O=C(CCCCC1CCSS1)Nc1ccc(OC(F)(F)F)cc1 (centres undefined)	83	84.5	1.97	78.4	7.05	10	20.3	1.24	1.54	90.1	8.49	12.2	0.29	5.53	8.57	88.5	6.69	10.8	38.2		
O=C(O)CCCCC1CCSS1 (stereo not drawn) [LIPOIC ACID, ALPHA]	5.72	5.11	0.14	8.17	8.71	1.05	2.39	4.77	8.6	11	7.18	4.65	2.52	3.39							inhibition at 10 µM (FaDu): 50%; EC50 (HT-29): 250 µM; inhibition at 10 µM (SCC-9): 50%; LD50 [21]: 2000 mg/kg; Activity (SMMC-7721): 65%; inhibition at 10 µM (SCC-25): 50%; inhibition at 10 µM [22]: 50%
O=C(CCCCC1CCSS1)Nc1ccc(F)cc1 (centres undefined)	64.5	78.1	11.3	74.5	15.6	5.82	18.8	1.92	4.05	85.4	4.44	11.4	1.79	6.59	3.89	80.8	15.6	14.5	13.8		
O=C(CCCCC1CCSS1)Nc1cccc(C(F)(F)F)c1 (centres undefined)	68.8	74.8	0.33	61.9		4.76	6.77	4.43	9.5	80	10.9	4.39		5	5.99	88.7	6.27	8.44	38.5		
O=C(CCCCCCC(=O)Nc1ccccc1)NO [VORINOSTAT]																					Activity (CCRF S-180 [23]): 1.61 g; Activity (CCRF S-180 [24]): 1.53 g
CS/C=C\C(=O)SCCC(CCCCC(=O)OCCN(C)C)SC(=O)/C=C\SC (centres undefined)																				50	
O=P1(N(CCCl)CCCl)NCCCO1 (centres undefined) [CYCLOPHOSPHAMIDE ANHYDROUS]																					Activity (CCRF S-180 [23]): 0.39 g; inhibition in vivo at 100 mg/kg (CCRF S-180 [25]): 74.5%
CS/C=C/C(=O)SCCC(CCCCC(=O)OCCN(C)C)SC(=O)/C=C/SC (centres undefined)																				45	
O=C(CCCCC1CCSS1)Nc1ccccc1 (centres undefined)	47.6	57.8	10.9	60.6	9.48	10.9	0.75	2.27	6.06	65.3	10.2	5.86	3.28	11.2	4.71	59.2	5.5	13.6	13		inhibition of growth at 0.1 µg/mL (Bel-7402 [4]): 3.22%
CSCCCC(=O)SCCC(CCCCC(=O)OCCN(C)C)SC(=O)CCCSC (centres undefined)																				240	
O=C(CCCCC1CCSS1)Nc1ccc(Cl)cn1 (centres undefined)	58.5	68.5		48.5	3.93	2.1	33.7	16.1	0.76	74.5	28.6	6.26	7.44		27.5	42.3	2.22	2	17.1		Activity (Mus musculus [26]): 10%; Activity (Mus musculus [27]): Non-toxic; inhibition at 0.1 µg/mL (CCRF S-180 [28]): 5.92%; LD50 [29]: 1000 mg/kg; Activity (Mus musculus [30]): Toxic; Activity (CCRF S-180 [23]): 1.53 g; inhibition at 10 µg/mL (CCRF S-180 [31]): 24.5%; Activity (Mus musculus [32]): Non-toxic; inhibition at 1 µg/mL (CCRF S-180 [33]): 13%; inhibition at 100 µg/mL (CCRF S-180 [34]): 74.3%; Activity (CCRF S-180 [24]): 1.15 g; inhibition in vivo at 200 mg/kg (CCRF S-180 [35]): 24.7%; Activity (Mus musculus [36]): Non-toxic
COC(=O)CCCCC(CCSC(=O)CCCSC)SC(=O)CCCSC (centres undefined)																				400	
